Measured values as given in US11857588B2, “Reproductive cell maintenance system” (Membrane Protective Technologies, Inc., priority 2005, dated 2024).
Where two headings read alike, the source gives them in different places.

Assays:
stallion sperm cells [1] = type: cell-based
Procedure: In a first experiment (data set out to the right of Exp 1 in Tables 1-6), semen was collected from two stallions via artificial vagina. The motility of each ejaculate was determined subjectively via light microscope and the semen was diluted to a final concentration of about 5×10^8 motile sperm cells/ml with E-Z freezin LE (Animal Reproduction Systems, Chino, Calif.) and combined to one each of thirteen 0.25 mL semen samples was an amount of a corresponding one of thirteen adjuvants: (1) no addition-control (“untreated control semen sample); 2) about 5% cyclodextrin; 3) about 2.5% cyclodextrin; 4) about 5% pulp oil in cyclodextrin; 5) about 2.5% pulp oil in cyclodextrin; 6) about 5% seed oil in cyclodextrin; 7) about 2.5% seed oil in cyclodextrin; 8) emulsion of about 5% seed oil, 9) emulsion of about 2.5% seed oil, 10) emulsion of about 5% pulp oil, 11) emulsion of about 2.5% pulp oil, 12) about 5% juice, and 13) about 2.5% juice. Throughout this description the amount of extract is expressed as a percentage volume to volume (v/v) unless otherwise indicated.
Following dilution of each semen sample with E-Z freezin LE and combining the diluted semen with the corresponding adjuvant (“treated semen samples”), the treated semen samples were cooled by reducing the temperature at a controlled rate to about 5° C. […]

stallion sperm cells [2] = type: cell-based; remark: listed apart in the source
Procedure: In a second experiment (data set out to the right of Exp 2 in Tables 5-6), semen was collected from one stallion via artificial vagina. The motility of the ejaculate was determined objectively using a Hamilton-Thorn sperm analyzer with a 37° C. stage warmer. The assessed data included percentage of motile sperm cells, progressive motile sperm cells, as well as average path velocity, straight line velocity, and straightness of motile sperm cells in accordance with conventional operating procedures for the instrument. […]
Following dilution of each semen sample with E-Z Mixin CST and the corresponding adjuvant, the treated semen samples were cooled by reducing the temperature at a controlled rate to about 4° C. Motility was evaluated subjectively via light microscope immediately at 24, 38, and 72 h after being held at about 4° C. […]

In the case of cyclodextrin, the “effect on sperm cells (spermicidal)” value (stallion sperm cells [1]) is reported as “spermicidal” and the “effect on sperm cells (spermicidal)” value (stallion sperm cells [2]) is reported as “spermicidal”.
